Assays:
common pursiane = experiment: Test D common purslane; type: in vivo, Portulaca oleracea
Outline: (§1)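 Each weed species is planted in its own pot or compartment; preemergence doses go on the sandy loam surface within a day. The formulation is a surfactant-containing, non-phytotoxic solvent blend. Ratings come from visual comparison with untreated controls 14 to 21 days later, where 100 means complete control.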

velvetleaf = experiment: Test B pre/postemergence velvetleaf; type: in vivo, Abutilon theophrasti
Outline: (§2)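 Test chemicals in a non-phytotoxic solvent mixture with surfactant were sprayed preemergence onto planted seeds and postemergence onto plants 2 to 18 cm tall (1- to 4-leaf stage). After twelve to sixteen days in a greenhouse, injury was visually rated against untreated controls from 0 (no effect) to 10 (complete control).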

Spanishneedles = experiment: Test D Spanishneedles; type: in vivo, Bidens bipinnata; details: Preemergence, 0 to 100 scale
Outline: as §1

smallflower flatsedge = experiment: Test B flood test smallflower flatsedge; type: in vivo, Cyperus difformis
Outline: (§3)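 Plants were grown to the 2-leaf stage before treatment with test chemical, then held in a greenhouse for twelve to sixteen days. Injury was visually rated against untreated controls on a 0–10 scale, where 0 is no effect and 10 is complete control.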

soybean = experiment: Test B pre/postemergence soybean; type: in vivo, Glycine max
Outline: as §2

duck salad = experiment: Test B flood test duck salad; type: in vivo, Heteranthera limosa
Outline: as §3

surinam grass = experiment: Test D surinam grass; type: in vivo, Brachiaria decumbens; details: Preemergence, 0 to 100 scale
Outline: as §1

winter wheat [1] = experiment: Test E winter wheat; type: in vivo, Triticum aestivum; details: Postemergence
Outline: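 Plants were grown under normal greenhouse practice; for postemergence, in sandy loam soil mixed 60:40 with potting mix, treated at the 1- to 4-leaf stage. The compound was in a non-phytotoxic solvent carrying a surfactant. After roughly 21 to 28 days plants were scored visually against untreated plants.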

Italian ryegrass = experiment: Test E Italian ryegrass; type: in vivo, Lolium multiflorum; details: Preemergence
winter wheat [2] = experiment: Test E winter wheat; type: in vivo, Triticum aestivum; details: Preemergence
wild oat = experiment: Test E wild oat; type: in vivo, Avena fatua; details: Preemergence
winter barley = experiment: Test E winter barley; type: in vivo, Hordeum vulgare; details: Preemergence
green foxtail = experiment: Test E green foxtail; type: in vivo, Setaria viridis; details: Preemergence
blackgrass = experiment: Test E blackgrass; type: in vivo, Alopecurus myosuroides; details: Preemergence
[3] = Postemergence, Rate 62 g/ha, scale 0 to 10, 0 is no effect, 10 is complete control
[4] = Postemergence, Rate 250 g/ha, scale 0 to 10, 0 no effect, 10 complete control
[5] = Preemergence, Rate 62 g/ha, scale 0 to 10, 0 is no effect, 10 is complete control
[6] = Preemergence, Rate 125 g/ha, scale 0 to 10 (0 no effect, 10 complete control)
[7] = Preemergence, Rate 250 g/ha, scale of 0 to 10 where 0 is no effect and 10 is complete control
[8] = Preemergence, Rate 500 g/ha, scale 0 (no effect) to 10 (complete control)
[9] = Rate 125 g/ha, Postemergence, scale 0 to 10, 0 no effect, 10 complete control
[10] = Pre-emergence, Rate 1000 g/ha, scale 0 to 10 (0 no effect, 10 complete control)
[11] = Rate 125 g/ha, Postemergence section (flood test species), scale 0 to 10, 0 no effect, 10 complete control
[12] = Rate 250 g/ha, headed Pre-emergence (flood test species), scale 0 to 10 (0 no effect, 10 complete control)
[13] = Rate 500 g/ha, headed Pre-emergence (flood test species), scale 0 to 10 (0 no effect, 10 complete control)
[14] = Rate 2000 g/ha, Pre-emergence (as headed), scale 0 to 10
[15] = flood test, listed under Postemergence, Rate 250 g/ha, scale 0 to 10, 0 no effect, 10 complete control
[16] = Rate 500 g/ha, Postemergence section of Table B, 0 to 10 scale (0 no effect, 10 complete control)
[17] = Rate 32 g/ha, 0 no injury, 100 complete control
[18] = Rate 64 g/ha, 0 no injury, 100 complete control
[19] = Rate 125 g/ha, 0 no injury, 100 complete control
[20] = Rate 500 g/ha, 0 to 100 scale where 0 is no effect and 100 is complete control
[21] = Rate 1000 g/ha, 0 to 100 scale, 0 no effect, 100 complete control
[22] = Preemergence, Rate 62 g/ha, scale of 0 to 10 where 0 is no effect and 10 is complete control
[23] = Preemergence, Rate 500 g/ha, scale of 0 to 10 where 0 is no effect and 10 is complete control
[24] = Rate 125 g/ha, Postemergence, scale of 0 to 10 where 0 is no effect and 10 is complete control
[25] = Rate 125 g/ha, Preemergence, scale of 0 to 10 where 0 is no effect and 10 is complete control
[26] = Rate 250 g/ha, Postemergence, scale of 0 to 10 where 0 is no effect and 10 is complete control
[27] = Rate 500 g/ha, Postemergence, scale 0 to 10, 0 no effect, 10 complete control
[28] = Rate 62 g/ha, headed Pre-emergence (flood test species), scale 0 to 10 (0 no effect, 10 complete control)
[29] = Rate 125 g/ha, Pre-emergence, flood test species, scale 0 to 10 where 0 is no effect and 10 is complete control
[30] = Rate 250 g/ha, Pre-emergence, flood-test species, scale 0 to 10, 0 is no effect, 10 is complete control
[31] = Rate 500 g/ha, Pre-emergence, flood test species, scale 0 to 10 (0 no effect, 10 complete control)

## Cc1ccccc1-n1c(=O)on(C(=O)N(c2ccccc2)C(C)C)c1=O [Compound 36]
Common pursiane; Rate 500 g/ha, Preemergence; 0 to 100 scale
  Plant response rating, C. purslane: 10
Common pursiane; Rate 500 g/ha; Preemergence; 0 to 100 scale
  Plant response rating, C. purslane: 0
velvetleaf; [3]
  Velvetleaf plant response rating: 0
velvetleaf; [4]
  Velvetleaf plant response rating: 0
velvetleaf; [5]
  Plant response rating, Velvetleaf: 0
velvetleaf; [6]
  Plant response rating, Velvetleaf: 0
velvetleaf; [7]
  Plant response rating, Velvetleaf: 0
velvetleaf; [8]
  Velvetleaf plant response rating: 0
velvetleaf; [9]
  Velvetleaf plant response rating: 0
Spanishneedles; Rate 500 g/ha
  Plant response rating, Spanishneedles: 10
Smallflower flatsedge; [3]
  S. Flatsedge plant response rating: 0
Smallflower flatsedge; [10]
  S. Flatsedge plant response rating: 0
Smallflower flatsedge; [11]
  S. Flatsedge plant response rating: 0
Smallflower flatsedge; [12]
  S. Flatsedge plant response rating: 0
Smallflower flatsedge; [13]
  Plant response rating, S. Flatsedge: 0
Smallflower flatsedge; [14]
  S. Flatsedge plant response rating: 0
Smallflower flatsedge; [15]
  S. Flatsedge plant response rating: 0
soybean; [3]
  Soybean plant response rating: 5
soybean; [4]
  Soybean plant response rating: 5
soybean; [5]
  Plant response rating, Soybean: 0
soybean; [6]
  Plant response rating, Soybean: 0
soybean; [7]
  Plant response rating, Soybean: 0
soybean; [8]
  Soybean plant response rating: 0
soybean; [9]
  Soybean plant response rating: 5
Duck salad; [3]
  Ducksalad plant response rating: 0
Duck salad; [11]
  Ducksalad plant response rating: 0
Duck salad; [12]
  Ducksalad plant response rating: 0
Duck salad; [16]
  Ducksalad plant response rating: 0
Duck salad; [13]
  Plant response rating, Ducksalad: 0
Duck salad; Rate 1000 g/ha, Pre-emergence (as headed), scale 0 to 10
  Ducksalad plant response rating: 0
Duck salad; [14]
  Ducksalad plant response rating: 0
Duck salad; [15]
  Ducksalad plant response rating: 0
Surinam grass; Rate 500 g/ha
  Plant response rating Surinam grass: 85

## CCc1ccccc1-n1c(=O)on(C(=O)N(c2ccc(F)cc2)C(C)C)c1=O [Compound 34]
Common pursiane; Rate 32 g/ha; Preemergence; 0 to 100 scale, 0 no injury, 100 complete control
  Plant response rating, C. purslane: 0
Common pursiane; Rate 125 g/ha, Preemergence; 0 to 100 scale, 0 no injury, 100 complete control
  Plant response rating, C. purslane: 0
Common pursiane; Rate 250 g/ha; Preemergence; 0 to 100 scale
  Plant response rating, C. purslane: 0
velvetleaf; [3]
  Velvetleaf plant response rating: 0
velvetleaf; [4]
  Velvetleaf plant response rating: 2
velvetleaf; [5]
  Plant response rating, Velvetleaf: 0
velvetleaf; [6]
  Plant response rating, Velvetleaf: 0
velvetleaf; [7]
  Plant response rating, Velvetleaf: 0
velvetleaf; [8]
  Velvetleaf plant response rating: 2
velvetleaf; [9]
  Velvetleaf plant response rating: 0
Spanishneedles; [17]
  Plant response rating, Spanishneedles: 0
Spanishneedles; [18]
  Spanishneedles plant response rating: 0
Spanishneedles; [19]
  Spanishneedles plant response rating: 0
Smallflower flatsedge; [3]
  S. Flatsedge plant response rating: 0
Smallflower flatsedge; [11]
  S. Flatsedge plant response rating: 0
Smallflower flatsedge; [15]
  S. Flatsedge plant response rating: 0
soybean; [3]
  Soybean plant response rating: 0
soybean; [4]
  Soybean plant response rating: 0
soybean; [5]
  Plant response rating, Soybean: 0
soybean; [6]
  Plant response rating, Soybean: 0
soybean; [7]
  Plant response rating, Soybean: 0
soybean; [8]
  Soybean plant response rating: 0
soybean; [9]
  Soybean plant response rating: 0
Duck salad; [3]
  Ducksalad plant response rating: 0
Duck salad; [11]
  Ducksalad plant response rating: 0
Duck salad; [16]
  Ducksalad plant response rating: 0
Duck salad; [15]
  Ducksalad plant response rating: 0
Surinam grass; [17]
  Plant response rating Surinam grass: 0
Surinam grass; [18]
  Surinam grass plant response rating: 0
Surinam grass; [19]
  Surinam grass plant response rating: 0
Surinam grass; Rate 250 g/ha
  Plant response rating Surinam grass: 20

## CCN(C(=O)n1oc(=O)n(N(C)C)c1=O)C1CCCCC1 [Compound 274]
Winter wheat [1]; Rate 1000 g/ha, 0 to 100 scale where 0 is no effect and 100 is complete control
  Plant response rating, Wheat (winter): 60
Winter wheat [1]; Rate 250 g/ha, 0 to 100 scale where 0 is no effect and 100 is complete control
  Wheat (winter) plant response rating: 30
Winter wheat [1]; Rate 500 g/ha, 0 to 100 scale, 0 is no effect, 100 is complete control
  Plant response rating, Wheat (winter): 50
Italian ryegrass; Rate 250 g/ha
  I. Ryegrass plant response rating (0 to 100 scale): 20
Italian ryegrass; [20]
  Plant response rating, I. Ryegrass: 30
Italian ryegrass; [21]
  Plant response rating, I. Ryegrass: 50
Winter wheat [2]; Rate 250 g/ha
  Wheat (winter) plant response rating (0 to 100 scale): 30
Winter wheat [2]; [20]
  Plant response rating, Wheat (winter): 50
Winter wheat [2]; [21]
  Plant response rating, Wheat (winter): 50
velvetleaf; [22]
  Velvetleaf plant response rating: 0
velvetleaf; [7]
  Velvetleaf plant response rating: 0
velvetleaf; [23]
  Plant response rating, Velvetleaf: 0
velvetleaf; [24]
  Velvetleaf plant response rating: 0
velvetleaf; [25]
  Velvetleaf plant response rating: 0
velvetleaf; [26]
  Plant response rating, Velvetleaf: 0
velvetleaf; [27]
  Velvetleaf plant response rating: 0
Wild oat; Rate 250 g/ha
  Wild oat plant response rating (0 to 100 scale): 40
Wild oat; [20]
  Plant response rating, Wild oat: 50
Wild oat; [21]
  Plant response rating, Wild oat: 60
Smallflower flatsedge; [10]
  S. Flatsedge plant response rating: 0
Smallflower flatsedge; [28]
  S. Flatsedge plant response rating: 0
Smallflower flatsedge; [29]
  S. Flatsedge plant response rating: 0
Smallflower flatsedge; [30]
  S. Flatsedge plant response rating: 0
Smallflower flatsedge; [31]
  S. Flatsedge plant response rating: 0
Smallflower flatsedge; [14]
  S. Flatsedge plant response rating: 0
soybean; [22]
  Soybean plant response rating: 0
soybean; [7]
  Soybean plant response rating: 0
soybean; [23]
  Plant response rating, Soybean: 0
soybean; [24]
  Soybean plant response rating: 3
soybean; [25]
  Soybean plant response rating: 0
soybean; [26]
  Plant response rating, Soybean: 5
soybean; [27]
  Soybean plant response rating: 5
Duck salad; [10]
  Ducksalad plant response rating: 0
Duck salad; [28]
  Ducksalad plant response rating: 0
Duck salad; [29]
  Ducksalad plant response rating: 0
Duck salad; [30]
  Ducksalad plant response rating: 0
Duck salad; [31]
  Ducksalad plant response rating: 0
Duck salad; [14]
  Ducksalad plant response rating: 0
Winter barley; Rate 250 g/ha
  Barley (winter) plant response rating (0 to 100 scale): 50
Winter barley; [20]
  Plant response rating, Barley (winter): 60
Winter barley; [21]
  Plant response rating, Barley (winter): 55
Green foxtail; Rate 250 g/ha
  Green foxtail plant response rating (0 to 100 scale): 20
Green foxtail; [20]
  Plant response rating, Green foxtail: 30
Green foxtail; [21]
  Plant response rating, Green foxtail: 40
blackgrass; Rate 250 g/ha
  Blackgrass plant response rating (0 to 100 scale): 0
blackgrass; [20]
  Plant response rating, Blackgrass: 30
blackgrass; [21]
  Plant response rating, Blackgrass: 65

Reference: US6737383B1, “Herbicidal oxadiazolidines” (priority 1999, dated 2004)
